The results in this text go back to patent US20150018311A1, “THERAPEUTIC BORON-CONTAINING COMPOUNDS” (priority 2012, published 2015).

Holding throughout (assay): Growth in liquid media in presence of test compound
What all share (assay type): cell-based

The subject of assay [1] is Mycobacterium tuberculosis (H37Rv).
For assay [2], the system named is Staphylococcus aureus (ATCC 25923). The text has this: (§1) Test organisms used were the bacterial strains Escherichia coli (ATCC 25922), Pseudomonas aeruginosa (ATCC 27853), Staphylococcus aureus (ATCC 25923), Streptococcus pyogenes (ATCC 19615), and Mycobacterium tuberculosis (H37Rv), and the yeast strain Candida albicans (ATCC 90028).
(§2) The liquid media used for growth were Luria-Bertani (Becton Dickinson, Sparks, Md.) and Mueller-Hinton (bio-Merieux, Paris, France) broths, but with Saburo medium for Candida and Middlebrook 7H9 medium (Difco) for mycobacteria.
(§3) The strains were grown at 37° C. and after suitable cell concentrations had been reached, 100 μL of each cell suspension was added to a tube with growth media and test compound. Cultivation of the bacteria was then carried out in the presence of each test compound at 37° C. and the tubes examined for visible growth. The compounds were tested at concentrations of either 500 mg/l, 50 mg/l or 5 mg/l. This assay was repeated twice.
(§4) Some compounds were only tested against some test organisms. It will be appreciated that the charge of these molecules will depend on the environment, some of the Examples are shown with a suitable counter ion, some without.

The subject of assay [3] is Streptococcus pyogenes (ATCC 19615).
Description: as §1, §2, §3, §4

The test system of assay [4] is Candida albicans (ATCC 90028).
Description: as §1, §2, §3, §4

In assay [5] the test system is Escherichia coli (ATCC 25922).
Description: as §1, §2, §3, §4

The structures appear in SMILES notation.

In the case of `CC1(C)C2CC3OB(CC(Cc4ccccc4)NC(=O)C(N)Cc4ccccc4)OC3(C)C1C2` (stereo not drawn) [Compound 2], the entries for the “Growth in the presence of test compound, M. tuberculosis” value (from here on “Growth … M. tuberculosis”) in assay [1] (5 mg/L), in assay [1] (50 mg/L) and in assay [1] (500 mg/L) were “+”, “+” and “±”, respectively.

Consider `CC(N)C(=O)NC(CB1OC2CC3CC(C3(C)C)C2(C)O1)Cc1ccccc1` (stereo not drawn) [Compound 3], for which the “Growth … M. tuberculosis” value was “+” in assay [1] (5 mg/L), “−” in assay [1] (50 mg/L) and “−” in assay [1] (500 mg/L). For the same compound, the “Growth in the presence of test compound, S. aureus” value (from here on “Growth in the presence … S. aureus”) in assay [2] (5 mg/L) is “+”; in assay [2] (50 mg/L), “+”; in assay [2] (500 mg/L), “−”. Also, the “Growth in the presence of test compound, S. pyogenes” value (shortened to “Growth in the presence … S. pyogenes”) was “+” in assay [3] (5 mg/L), “+” in assay [3] (50 mg/L) and “−” in assay [3] (500 mg/L).

For `CC1(C)C2CC3OB(CC(Cc4ccccc4)NC(=O)C(N)Cc4c[nH]c5ccccc45)OC3(C)C1C2` (stereo not drawn) [Compound 5], the “Growth … M. tuberculosis” value is “+” in assay [1] (5 mg/L), “±” in assay [1] (50 mg/L) and “−” in assay [1] (500 mg/L). Also, the “Growth in the presence … S. aureus” value is “+” in assay [2] (5 mg/L), “+” in assay [2] (50 mg/L) and “−” in assay [2] (500 mg/L).

For the compound `CC(CB1OC2CC3CC(C3(C)C)C2(C)O1)NC(=O)C(N)CCCCN` (stereo not drawn) [Compound 6], the “Growth … M. tuberculosis” value in assay [1] (5 mg/L) is on record as “+”; in assay [1] (50 mg/L), “+”; in assay [1] (500 mg/L), “±”.

Turning to `CC(N)C(=O)NC(CB1OC2CC3CC(C3(C)C)C2(C)O1)c1ccccc1` (stereo not drawn) [Compound 8], the “Growth … M. tuberculosis” value in assay [1] (5 mg/L) was “+”; in assay [1] (50 mg/L), “+”; in assay [1] (500 mg/L), “−”. In addition, the “Growth in the presence … S. aureus” value in assay [2] (5 mg/L) was “+”; in assay [2] (50 mg/L) it was “+”; in assay [2] (500 mg/L), “±”.

As to `CC1(C)C2CC3OB([C@@H](CNC(=O)[C@@H](N)Cc4ccccc4)Cc4ccccc4)O[C@]3(C)C1C2` (stereo partly drawn) [Compound 10], the “Growth … M. tuberculosis” value in assay [1] (5 mg/L), in assay [1] (50 mg/L) and in assay [1] (500 mg/L) was “−” each time. Also, the results for the “Growth in the presence of test compound, C. albicans” value (shortened to “Growth in the presence … C. albicans”) in assay [4] (5 mg/L), in assay [4] (50 mg/L) and in assay [4] (500 mg/L) were “+”, “+” and “±”, respectively. In addition, the figures for the “Growth in the presence … S. aureus” value in assay [2] (5 mg/L), in assay [2] (50 mg/L) and in assay [2] (500 mg/L) were “+”, “+” and “±”, respectively. Also, the “Growth in the presence … S. pyogenes” value in assay [3] (5 mg/L) is listed as “+”; in assay [3] (50 mg/L), “+”; in assay [3] (500 mg/L) it was “±”.

For the compound `C[C@H](CNC(=O)[C@@H](N)CCCCN)B1OC2CC3CC(C3(C)C)[C@@]2(C)O1` (stereo partly drawn) [Compound 16], the results for the “Growth … M. tuberculosis” value in assay [1] (5 mg/L), in assay [1] (50 mg/L) and in assay [1] (500 mg/L) were “+”, “±” and “−”, respectively. Also, the entries for the “Growth in the presence … C. albicans” value in assay [4] (5 mg/L), in assay [4] (50 mg/L) and in assay [4] (500 mg/L) were “+”, “+” and “±”, respectively.

`C[C@H](CNC(=O)[C@@H](N)Cc1ccccc1)B1OC2CC3CC(C3(C)C)[C@@]2(C)O1` (stereo partly drawn) [Compound 17]: the “Growth … M. tuberculosis” value is listed as “+” in assay [1] (5 mg/L), “+” in assay [1] (50 mg/L) and “−” in assay [1] (500 mg/L). The “Growth in the presence … C. albicans” value in assay [4] (5 mg/L) is given as “+”; in assay [4] (50 mg/L), “+”; in assay [4] (500 mg/L), “±”. Further, the results for the “Growth in the presence … S. aureus” value in assay [2] (5 mg/L), in assay [2] (50 mg/L) and in assay [2] (500 mg/L) were “+”, “+” and “−”, respectively. In addition, the “Growth in the presence … S. pyogenes” value in assay [3] (5 mg/L) is “+”; in assay [3] (50 mg/L), “+”; in assay [3] (500 mg/L) it was “−”.

In the case of `CC1(C)C2CC3OB([C@@H](CNC(=O)[C@@H](N)Cc4ccccc4)c4ccccc4)O[C@]3(C)C1C2` (stereo partly drawn) [Compound 23], the figures for the “Growth … M. tuberculosis” value in assay [1] (5 mg/L), in assay [1] (50 mg/L) and in assay [1] (500 mg/L) were “+”, “+” and “−”, respectively. Further, the “Growth in the presence … C. albicans” value is “+” in assay [4] (5 mg/L), “+” in assay [4] (50 mg/L) and “−” in assay [4] (500 mg/L). The figures for the “Growth in the presence … S. aureus” value in assay [2] (5 mg/L), in assay [2] (50 mg/L) and in assay [2] (500 mg/L) were “+”, “+” and “−”, respectively. In addition, the entries for the “Growth in the presence … S. pyogenes” value in assay [3] (5 mg/L), in assay [3] (50 mg/L) and in assay [3] (500 mg/L) were “+”, “+” and “−”, respectively.

Consider `CC1(C)C2CC3OB(C(CNC(=O)C(N)CCCCN)c4ccccc4)OC3(C)C1C2` (stereo not drawn) [Compound 24], for which the “Growth … M. tuberculosis” value in assay [1] (5 mg/L) is reported as “+”; in assay [1] (50 mg/L), “+”; in assay [1] (500 mg/L), “−”.

On to `C[C@@H](NC(=O)[C@@H](N)Cc1ccccc1)[C@@H](Cc1ccccc1)B1OC2CC3CC(C3(C)C)[C@@]2(C)O1` (stereo partly drawn) [Compound 27], for which the figures for the “Growth … M. tuberculosis” value in assay [1] (5 mg/L), in assay [1] (50 mg/L) and in assay [1] (500 mg/L) were “+”, “−” and “±”, respectively. Besides, the entries for the “Growth in the presence … C. albicans” value in assay [4] (5 mg/L), in assay [4] (50 mg/L) and in assay [4] (500 mg/L) were “+”, “+” and “±”, respectively. In addition, the “Growth in the presence … S. pyogenes” value in assay [3] (5 mg/L) is reported as “+”; in assay [3] (50 mg/L) it was “+”; in assay [3] (500 mg/L), “±”.

For `C[C@@H](B1OC2CC3CC(C3(C)C)[C@@]2(C)O1)[C@@H](Cc1ccccc1)NC(=O)[C@@H](N)Cc1ccccc1` (stereo partly drawn) [Compound 28], the “Growth … M. tuberculosis” value is recorded as “+” in assay [1] (5 mg/L), “−” in assay [1] (50 mg/L) and “−” in assay [1] (500 mg/L). Further, the “Growth in the presence … C. albicans” value in assay [4] (5 mg/L) is on record as “+”; in assay [4] (50 mg/L), “+”; in assay [4] (500 mg/L), “±”. The results for the “Growth in the presence … S. aureus” value in assay [2] (5 mg/L), in assay [2] (50 mg/L) and in assay [2] (500 mg/L) were “+”, “+” and “±”, respectively. Besides, the “Growth in the presence … S. pyogenes” value in assay [3] (5 mg/L) is “+”; in assay [3] (50 mg/L) it was “+”; in assay [3] (500 mg/L), “±”.

Consider `CC1(C)C2CC3OB(CCNC(=O)[C@@H](N)CCCCN)O[C@]3(C)C1C2` (stereo partly drawn) [Compound 32], for which the “Growth … M. tuberculosis” value is “+” in assay [1] (5 mg/L), “+” in assay [1] (50 mg/L) and “−” in assay [1] (500 mg/L). Further, the “Growth in the presence … C. albicans” value in assay [4] (5 mg/L) is recorded as “+”; in assay [4] (50 mg/L), “+”; in assay [4] (500 mg/L), “−”. The results for the “Growth in the presence of test compound, E. coli” value in assay [5] (5 mg/L), in assay [5] (50 mg/L) and in assay [5] (500 mg/L) were “+”, “+” and “±”, respectively.

`N[C@@H](Cc1ccccc1)C(=O)N[C@@H](CB(O)O)Cc1ccccc1` [Compound 33]: the “Growth … M. tuberculosis” value in assay [1] (5 mg/L) is reported as “±”; in assay [1] (50 mg/L) it was “−”; in assay [1] (500 mg/L) it was “−”.

Consider `C[C@H](N)C(=O)N[C@@H](CB(O)O)Cc1ccccc1` [Compound 35], for which the “Growth … M. tuberculosis” value in assay [1] (5 mg/L) is reported as “+”; in assay [1] (50 mg/L), “+”; in assay [1] (500 mg/L), “−”.

`NCCCC[C@H](N)C(=O)NC[C@@H](CCc1ccccc1)B(O)O` [Compound 37]: the results for the “Growth … M. tuberculosis” value in assay [1] (5 mg/L), in assay [1] (50 mg/L) and in assay [1] (500 mg/L) were “+”, “+” and “−”, respectively. The “Growth in the presence … C. albicans” value in assay [4] (5 mg/L) is “+”; in assay [4] (50 mg/L), “+”; in assay [4] (500 mg/L) it was “−”.

With `N[C@@H](Cc1ccccc1)C(=O)NC[C@@H](CCc1ccccc1)B(O)O` [Compound 39], the figures for the “Growth … M. tuberculosis” value in assay [1] (5 mg/L), in assay [1] (50 mg/L) and in assay [1] (500 mg/L) were “+”, “+” and “−”, respectively. In addition, the “Growth in the presence of test compound, E. coli” value in assay [5] (5 mg/L) is recorded as “+”; in assay [5] (50 mg/L), “+”; in assay [5] (500 mg/L), “−”.

With `C[C@H](N)C(=O)NC[C@H](Cc1ccccc1)B(O)O` [Compound 40], the “Growth … M. tuberculosis” value in assay [1] (5 mg/L) is “±”; in assay [1] (50 mg/L), “±”; in assay [1] (500 mg/L), “−”.
